How the values were obtained:
Assay type in all cases: in vivo
[1] = Dose escalation and 14-day MTD study in female FVB mice; settings: female, FVB, mouse, in vivo; daily oral dose for 14 days
Experimental: In Vivo Range Finding Toxicity Studies in Mice and Rats: Dose escalation and 14-day MTD study of SRI-011381 and SRI-011382 in female FVB mice: The objectives of this study were to determine the maximum tolerated dose (MTD) and a no observable adverse effect level (NOAEL) in female FVB mice following a daily oral dose administration for 14 consecutive days. An initial dose escalation was performed with intraperitoneal (ip), oral (po), and intravenous (iv) dose routes for a single-dose MTD of SRI-011381 and SRI-011382.
Subsequently, three dose levels (10, 30, and 75 mg/kg) and a vehicle control group were used in the 14-day oral dose administration to determine the MTD and NOAEL based on changes in bodyweight, clinical observations, serum chemistry, hematology and gross organ physiology in 5 female mice per treatment group.
The objectives of this study were to determine maximum tolerated dose (MTD) and a no observable adverse effect level (NOAEL) in female FVB mice following a daily oral dose administration for 14 consecutive days. After a dose escalation single dose study with doses up to 400 mg/kg, three dose levels were selected for the repeat dose study, 10, 30 and 75 mg/kg, administered […]. The MTD is the maximum dose administered that results in less than 10% body weight loss compared to controls and no other dose limiting adverse effects (e.g. clinical pathology).

[2] = Repeat dose range finding toxicity study in APP751LonSwe transgenic mice; settings: both sexes, APP751LonSwe transgenic, C57Bl/6 background, mouse, in vivo; oral, 3 times per week for 2 weeks; read-out: maximum tolerated dose (MTD)
Experimental: (§1) Determination of the maximum tolerated dose of SRI-011381 in APP transgenic mice on a C57Bl/6 genetic background: A repeat dose range finding toxicity study was also performed in APP751^LonSwe transgenic mice to select doses for evaluation in the efficacy study. Compound SRI-011381 was dissolved in a vehicle containing 15% solutol and 85% water. The formulated compound was administered orally to APP751^LonSwe transgenic mice at 0 (vehicle only), 10, 30, 60, or 100 mg/kg of body weight 3 times a week for 2 weeks (this is the regimen intended to be used for the preclinical treatment study in these mice). Five mice (3 male and 2 female) were used for each dosage group. The starting ages of the mice ranged from 4.4 to 6.1 months. Serum and whole blood samples were collected at the end of the study and subjected to clinical chemistry and hematology analysis.

[3] = test system: APP751LonSwe transgenic mice; assay: as above; settings: oral 10, 30, 60, or 100 mg/kg 3 times a week for 2 weeks
Experimental: as §1

[4] = test system: APP751Lon,Swe transgenic mice; assay: Efficacy in APP751Lon,Swe transgenic mouse model; settings: for Y-maze working memory (spontaneous alternations): po 3 times per week
Source text: Transgenic mouse models over-producing human APP-containing mutations found in families with autosomal dominant AD reproduce important aspects of AD, including amyloid plaques, neurodegeneration, and cognitive deficits. Transgenic mice which overexpress human APP751^V717I, K670M/N671L (aka London and Swedish mutations) in neurons under control of a Thy1.2 promoter, specifically Line 41 generated according to Rockenstein et al., (2001) J. Neurosci. Res. 66: 573-582, incorporated herein by reference in its entirety, develop amyloid pathology, neurodegeneration, and cognitive deficits (Rockenstein et al. 2001). These mice (short APP751^Lon,Swe) have been studied by multiple laboratories (Pickford et al. (2008) J. Clin. Invest. doi:10.1172/JCI33585; Knowles et al., (2009) J. Neuroscience 29: 10627-10637) and have been used as a model for drug development.
Compound SRI-011381 was dissolved in a vehicle containing 15% solutol and 85% water. The formulated compound was administered orally to APP751^Lon,Swe transgenic mice or littermate non-transgenic controls (male, 6.5-7.5 months of age) at 0 (vehicle only), 10, 30 mg/kg of body weight 3 times per week for 10 weeks (n=7-11 mice per group). Behavioral studies started at this point. Oral gavage of the compound continued throughout the course of the studies until the mice were sacrificed 17 weeks after treatment had been initiated (thus mice were treated for roughly 4 months total before they were sacrificed). Plasma samples were collected for future proteomic assays. One hemibrain was fixed in 4% PFA for 48 h and kept in 2% PFA at 4° C. for neuropathologcial analysis. The other hemibrain was snap frozen. Both the serum and frozen brain samples were placed into −80° C. freezer for long-term storage.
To determine the effects of SRI-011381 (381) treatment on AD-like pathology brains from APP751^Lon,Swe transgenic and non-transgenic littermate control mice treated with vehicle, 10 mg/kg, or 30 mg/kg of compound were sectioned into 40 μm free-floating sections with a vibratome. Brain sections were stained with antibodies against Aβ, phosphorylated tau (PHF1), calbindin, microtubule associated protein2 (MAP2), synaptophysin (SY38), NeuN, and Iba1. In addition, hippocampus and neocortex from one hemibrain from APP751^Lon,Swe mice were homogenized with guanidine, and levels of Aβ1-42 and Aƒβ1-x were measured by ELISA.

**Q.** With `O=C(NC1CCCCC1)N(Cc1ccccc1)CC1CCNCC1` [SRI-011381, 1-Benzyl-3-cyclohexyl-1-(piperidin-4-ylmethyl)urea] as the molecule, how does the NOAEL at 14 days [1] read?
**A.** < 30 mg/kg

**Q.** What about the MTD at 2 weeks [2] of the same molecule?
**A.** > 100 mg/kg

**Q.** What about the body weight [3] of the same molecule?
**A.** no significant differences in body weight

**Q.** What about the “clinical chemistry or hematology parameters” value [3] of the same molecule?
**A.** no statistically significant changes

**Q.** And the “fear conditioning: context memory” value ([4]; 10 mg/kg)?
**A.** significantly improved

**Q.** What about the “rescue of working memory deficit (Y-maze)” value ([4]; 10 mg/kg po 3 times per week, 10 weeks) of the same molecule?
**A.** > 50%

**Q.** And the “fear conditioning: cued memory to the tone” value ([4]; 10 or 30 mg/kg)?
**A.** no significant differences

**Q.** What about the “fear conditioning: learning of the tone response (freezing, tone 4)” value ([4]; 10 or 30 mg/kg) of the same molecule?
**A.** completely absent

**Q.** What about the “Aβ immunoreactivity in hippocampus and cortex” value ([4]; 10 or 30 mg/kg, about 4 months) of the same molecule?
**A.** trend was seen towards lower levels

**Q.** And the “Aβ levels by ELISA in hippocampus and cortex” value ([4]; 10 or 30 mg/kg, about 4 months)?
**A.** non-significant trends towards lower Aβ levels

**Q.** What about the “increase in expression of PHF1” value ([4]; 10 or 30 mg/kg, about 4 months) of the same molecule?
**A.** almost completely absent

**Q.** What about the “level of Iba1” value ([4]; 10 or 30 mg/kg, about 4 months) of the same molecule?
**A.** did not significantly change

**Q.** What about the “levels of calbindin, synaptophysin, MAP-2 and NeuN” value ([4]; 10 or 30 mg/kg, about 4 months) of the same molecule?
**A.** significantly higher levels of these neuronal markers

**Q.** What about the “fear conditioning: cued memory to the tone” value ([4]; 10 or 30 mg/kg, listed as 381) of the same molecule?
**A.** No freezing difference

**Q.** What about the “fear conditioning: learning of the tone response (freezing, tone 4)” value ([4]; 10 or 30 mg/kg, listed as 381) of the same molecule?
**A.** significant increase in freezing

**Q.** What about the “rescue of contextual memory deficit” value ([4]; oral) of the same molecule?
**A.** greater than 50%

**Q.** What about the “Y-maze working memory (spontaneous alternations)” value ([4]; 10 weeks) of the same molecule?
**A.** not significantly impaired compared with littermate non-transgenic controls

**Q.** And the “Y-maze working memory (spontaneous alternations)” value ([4]; 10 weeks, listed as 381)?
**A.** improved

**Q.** And the neurodegeneration ([4]; two dose levels, 4-month-period of treatment)?
**A.** marked amelioration of neurodegeneration
